Where two headings read alike, the source gives them in different places.
Assays:
[1] = supplementation of the diet; cited from earlier work
[2] = tested on: Lactobacillus paracasei 3052-E000; assay type: cell-based; details: for inhibitor effect on the growth or reduction in the biomass production yield: up to 20 mg/L (in selenium equivalent); for reduction in the biomass production yield: 48 h
Experimental: In this experiment, the growth characteristics of the bacterium Lactobacillus paracasei were measured in the presence of different concentrations of selenium in the form of sodium selenite, selenomethionine, 2-hydroxy-4-methylseleno-butanoic acid and compared with the growth characteristics in the absence of additives.
The pre-culture of the strain Lactobacillus paracasei 3052-E000 is carried out in liquid MRS medium, at 42° C., without agitation for 24 h. The culture of the strain Lactobacillus paracasei 3052-E000 was carried out from an inoculum (1.10^7 UFC/ml) of the above pre-culture in 100 mL of MRS medium, at pH=6.4 and at a temperature of 42° C. (without agitation).
The cultures were monitored by absorbance measurements at 550 nm and CFU counting carried out on MRS plate.
The concentrations tested for the addition of selenium selenite are 0.5 mg/L, 2 mg/L, 10 mg/L and 20 mg/L in selenium equivalent, i.e. respectively 1.11 mg/L, 4.44 mg/L, 22.22 mg/L and 44.44 mg/L of sodium selenite. The graph of FIG. 4 makes it possible to visualise the growth of the strain Lactobacillus paracasei 3052-E000 in the presence of sodium selenite.
The concentrations tested for the addition of selenomethionine are 0.5 mg/L, 2 mg/L, 10 mg/L and 20 mg/L in selenium equivalent, i.e. respectively 1.25 mg/L, 5 mg/L, 25 mg/L and 50 mg/L of selenomethionine.
(§1) The concentrations tested for the addition of 2-hydroxy-4-methylseleno-butanoic acid are 0.5 mg/L, 2 mg/L, 10 mg/L and 20 mg/L in selenium equivalent, i.e. respectively 1.25 mg/L, 5 mg/L, 25 mg/L and 50 mg/L of 2-hydroxy-4-methylseleno-butanoic acid (THD-177, Tetrahedron, France, CAS: 873660-49-2).
In order to complete the study of the impact of the addition of 2-hydroxy-4-methylseleno-butanoic acid, at higher values, concentrations of 40 and 60 mg/L were tested under the same conditions as previously.

[3] = tested on: Saccharomyces cerevisiae 3053-E000; assay type: cell-based; details: for yield of biomass obtained (change): 48 h; for concentration from which an effect on growth / biomass yield begins to show: YPG medium, pH 4, 37° C.
Experimental: In the experiments described, the growth characteristics of the yeast Saccharomyces cerevisiae 3053 E000 were measured in the presence of different concentrations of selenium in the form of sodium selenite, selenomethionine, or 2-hydroxy-4-methylseleno-butanoic acid and compared to the growth characteristics in the absence of additives (control). The pre-culture of the strain Saccharomyces cerevisiae 3053-E000 is carried out in liquid YPG medium, at 37° C., under orbital agitation (250 rpm) for 24 h.
The culture is formed from an inoculum (1.10^6 UFC/ml) of the pre-culture described previously in 100 mL of YPG medium, at pH=4 at a temperature of 37° C. under agitation (250 rpm) and according to the following conditions:
The cultures of Saccharomyces cerevisiae 3053-E000 were monitored by absorbance measurements at 550 nm and by CPU counting on YPG gelose plates.
The concentrations tested for the addition of selenium selenite are 0.5 mg/L, 10 mg/L and 20 mg/L in selenium equivalent, i.e. respectively: 1.1 mg/L, 22.22 mg/L and 44.44 mg/L of sodium selenite.
The concentrations tested for the addition of selenomethionine are 0.5 mg/L, 2 mg/L, 10 mg/L and 20 mg/L in selenium equivalent, i.e. respectively 1.25 mg/L, 5 mg/L, 25 mg/L and 50 mg/L of selenomethionine
as §1

[4] = 10 mg/L (in selenium equivalent)
[5] = 20 mg/L (in selenium equivalent)
[6] = 10 and 20 mg/L (in selenium equivalent)

Question: With `C[Se]CC[C@H](N)C(=O)O` [L(+)-selenomethionine] as the molecule, how does the “toxicity compared with an intake in the form of sodium selenite” value [1] read?
Answer: much less toxic

Question: Which results are given for `C[Se]CC[C@H](N)C(=O)O` [selenomethionine]?
Answer: inhibitor effect on the growth or reduction in the biomass production yield [2]: does not show an inhibitor effect; yield of biomass obtained (change) ([3]; 2 mg/L (in selenium equivalent)): −29%; yield of biomass obtained (change) [3, 4]: −50%; concentration from which an effect on growth / biomass yield begins to show [3]: 2 mg/L (in selenium equivalent)

Question: For `C[Se]CCC(O)C(=O)O` (stereo not shown) [THD 177, 2-hydroxy-4-methylseleno-butanoic acid], which “inhibitor effect on the growth and the biomass yield” value ([2]; 40 and 60 mg/L) is on record?
Answer: no inhibitor effect was observed

Question: And the “inhibitor effect on the growth or reduction in the biomass production yield” value [2]?
Answer: does not show an inhibitor effect

Question: And the “viability reduced by” value [3, 4]?
Answer: 36%

Question: And the “yield of biomass obtained (change)” value [3, 4]?
Answer: −15%

Question: What about the “biomass yield reduced by” value [3, 5] of the same molecule?
Answer: 36%

Question: What about the “viability reduced by” value [3, 5] of the same molecule?
Answer: 50%

Question: What about the “concentration from which an effect on growth / biomass yield begins to show” value [3] of the same molecule?
Answer: 10 mg/L (in selenium equivalent)

Question: With `O=[Se](O)O` [sodium selenite] as the molecule, how does the “reduction in the biomass production yield” value ([2]; 0.5 mg/L (in selenium equivalent)) read?
Answer: 25%

Question: And the “toxicity on Lactobacillus paracasei” value [2, 6]?
Answer: shows a toxicity

Question: And the “reduction in the biomass production yield” value [2, 6]?
Answer: 90%

Question: What about the “concentration from which an inhibitor effect on growth begins to show” value ([2]; MRS medium, pH 6.4, 42° C.) of the same molecule?
Answer: 0.5 mg/L (in selenium equivalent)

Question: And the “yield of biomass obtained (change)” value [3, 4]?
Answer: −50%

Question: And the “toxicity for Saccharomyces cerevisiae” value [3, 5]?
Answer: very toxic

Question: And the “concentration from which an effect on growth / biomass yield begins to show” value [3]?
Answer: 10 mg/L (in selenium equivalent)
